Paper PMC9653453, “Development of truncated elastin-like peptide analogues with improved temperature-response and self-assembling properties” (Scientific Reports, 2022)
Several values for one entry are separate records, joined by “and”; a condition that tells them apart may be missing. Identical values can stand only once. Ends that are not written are not given here.

What was measured:
[1] = Turbidity measurement (phase transition temperature Tt, coacervation) in phosphate buffer pH 7.4; type: physicochemical; conditions: for Coacervation on heating (in words): peptide 50 mg/mL (69.5 mM); for Tt, phase transition temperature: heating 0.5 ℃/min from 5 ℃, mean ± SE, at least three measurements
Protocol: Turbidity measurements were performed in accordance with previous reports. The temperature-dependent self-assembling properties of the ELP analogues were evaluated using a JASCO V-660 spectral photometer (JASCO Co., Tokyo, Japan). Peptide sample solutions of different concentrations (2.0, 5.0, 10, 20, 30, or 50 mg/mL) were prepared by dissolving each peptide (except for AADAAC-(FPGV)n) in phosphate buffer (27.4 mM Na2HPO4, 17.8 mM NaH2PO4, pH 7.4). AADAAC-(FPGV)4 was dissolved in Tris–HCl buffer solution (50.0 mM Tris, at pH 8.4 or 50.0 mM Tris, 154 mM NaCl, at pH 8.4) to prepare sample solutions of a concentration of 0.5 or 10 mg/mL in the absence or presence of the equimolar amount of CdCl2. Turbidity was measured at 400 nm with increasing or decreasing temperature at a rate of 0.5 ℃/min from 5 ℃. The concentration of each sample solution was measured at least three times. The self-assembling property was described by the phase transition temperature (Tt), which is the temperature at which the turbidity of the solution reaches half the maximum value.

[2] = Optical microscopy of peptide aggregates with image analysis of particle size; type: physicochemical; conditions: peptide 10 mg/mL, phosphate buffer pH 7.4
Protocol: The morphology of the coacervates of (FPGVG)4, (FPGV)4, and (FPG)4 was observed using optical microscopy. Light field observation was performed using a Leica DM IL LED microscope (Leica Microsystems CMS, Wetzlar, Germany) equipped with HI PLAN 40 × (Leica Microsystems CMS) and HC PLAN 10 × (Leica Microsystems CMS) objectives. Each peptide was dissolved in phosphate buffer (27.4 mM Na2HPO4, 17.8 mM NaH2PO4, at pH 7.4) to a concentration of 10 mg/mL and applied on a glass slide. Sample imaging was performed below and above the Tt of each peptide using a Thermo Plate TP-CHSQM (Tokai Hit Co., Ltd., Shizuoka, Japan). Sample images above Tt were taken 3 min after the sample reached the target temperature. The details of the image analysis is shown in the Supplementary Information file.
Size distribution of coacervates of ELP analogues formed above the Tt was analyzed using optical microscopy images of each peptide. Image analysis was performed using Image J/Fiji (NIH, USA), an open-source image analysis software.^2 Spatial calibration was carried out using […] in original images. The images of peptide coacervates were converted to a binary image via the menu command Image > Type > 8-bit. Using "analyze particle" command, the Feret diameters of the particles within the image were measured.

[3] = RP-UPLC retention time, used as measure of peptide hydrophobicity; type: physicochemical; conditions: RP-UPLC-MS; chromatographic
Protocol: Peptide synthesis was carried out using the conventional solid-phase peptide synthesis procedure (see supplementary information). The synthesized peptides were purified using RP-HPLC. The purity and molecular weight of each peptide were confirmed using RP-UPLC-MS (Table S1 and Fig. S1). […]
Retention times of each peptide were determined by RP-UPLC-MS.

[4] = Dynamic light scattering (DLS) size distribution of coacervates; type: physicochemical; conditions: phosphate buffer pH 7.4; for Temperature-dependent particle size by DLS (in words): 10 to 50 ℃ in 10 ℃ steps, peptide concentrations as in Fig. 3 (2.0-50 mg/mL); for Hydrodynamic diameter (DLS): peptide 10 mg/mL, filtered 0.2 µm
Protocol: The distribution of the particle size in the truncated ELP analogue solution was analyzed via DLS using Zetasizernano ZS (Malvern Instruments Ltd., Worcestershire, U.K.) in a measurement cell ZEN0112 (Malvern Instruments Ltd.)[33]. Peptide samples of different concentrations (2.0, 10, 20, 30, or 50 mg/mL) were prepared by dissolving each peptide in phosphate buffer (27.4 mM Na2HPO4, 17.8 mM NaH2PO4, pH 7.4) and filtered using the Millex-LG filter (pore size 0.2 µm, Merck Millipore) before measurement. DLS analysis was performed by increasing the temperature at 10 ℃ intervals from 10 to 50 ℃. Measurement duration was selected automatically. Parameter dataset “protein” (dataset: refractive index, 1.450; absorption, 0.001) was used as the material parameter, and parameter dataset “water” (dataset: refractive index, 1.330; viscosity, 0.8872) was chosen as the dispersant parameter. Attenuation was selected automatically. Each concentration was measured at least three times.

[5] = Turbidity measurement (phase transition temperature Tt, coacervation) in phosphate buffer pH 7.4; type: physicochemical; conditions: peptide 1.0 mg/mL, turbidity at 400 nm, heating 0.5 ℃/min from 5 ℃, half-maximal turbidity, mean ± SE, at least three measurements
[6] = Colorimetric (xylenol orange) determination of Cd^2+ removal by peptide coacervation; conditions: peptide 1.0 mg/mL, mean ± SE
Protocol: Colorimetric analyses of cadmium ions (Cd^2+) were carried out to evaluate the number of metal ions absorbed into the coacervation phase of the peptides by using a spectral photometer (JASCO V-660)[45]. […] The peptide solutions were incubated at 4 ℃ for 3, 6, or 12 h and then at 60 ℃ for 1.5 h to separate into the lower coacervation phase from the upper equilibrium solution phase. After incubation, the peptide solution was immediately centrifuged at room temperature for 2 min (6,200 rpm) to remove aggregates. An aliquot of 333 µL of supernatant of the equilibrium solution phase was added to 600 µL of acetate buffer solution (pH5.4) including 67 μM of XO and incubated for 10 min. Subsequently, the concentrations of Cd^2+ or Zn^2+ were determined by measuring the absorbance at 575 nm or 550 nm, respectively, which corresponds to the absorbance of the metal-XO complex. The amount of metal ions absorbed in the peptide solution was determined by the calibration line, which was prepared in the same manner by using a series of standard CdCl2 or ZnCl2 aqueous solutions of known concentrations. The homogeneity of variances between the concentration of each metal ion in the supernatant and the control solution was confirmed using the F test. The statistical significance of the difference between the concentration of each metal ion in the supernatant and the control solution was determined using the Student's t-test. Results were considered statistically significant at P values of ≤ 0.01.

[7] = phosphate buffer pH 7.4, turbidity at 400 nm
[8] = peptide 5.0 mg/mL, phosphate buffer pH 7.4, turbidity at 400 nm, half-maximal turbidity
[9] = peptide 10 mg/mL, phosphate buffer (27.4 mM Na2HPO4, 17.8 mM NaH2PO4, pH 7.4), turbidity at 400 nm, Tt = temperature at half-maximal turbidity
[10] = peptide 2.0 mg/mL, phosphate buffer pH 7.4, turbidity at 400 nm, half-maximal turbidity

Substance | UPLC retention time (measure of hydrophobicity) [3] | Tt, phase transition temperature [1, 8] | Tt, phase transition temperature [1, 9] | Temperature-dependent particle size by DLS (in words) [4] | other results
FPGFPGFPGFPG-NH2 [(FPG)4, H-(FPG)4-NH2] | 1.835 min |  |  | formed irreversible aggregates in the aqueous solution at 10 °C | Aggregation behaviour in aqueous solution (in words) ([1]; peptide 10 mg/mL, aqueous solution / phosphate buffer pH 7.4, with elapsed time without a temperature rise): formed irreversible aggregates; Morphology of aggregates (optical microscopy, in words) [2]: filamentous aggregates
FPGVFPGV-NH2 [(FPGV)2] | 0.583 min |  |  | did not show micrometer-sized particles | Turbidity change / coacervation on heating (in words) ([1]; peptide 30 mg/mL (36.7 mM), phosphate buffer pH 7.4, turbidity at 400 nm): did not exhibit turbidity change
FPGVFPGVFPGVFPGV-NH2 [(FPGV)4] | 2.431 min | 23.4 ± 0.1 °C | 17.0 ± 0.2 °C | rapidly formed micrometer-sized particles at 20 °C | Tt, phase transition temperature [1, 10]: 36.7 ± 0.3 °C; Morphology of aggregates (optical microscopy, in words) [2]: spherical aggregates; Particle size of coacervates (optical microscopy image analysis, Feret diameter) ([2]; above Tt ((FPGVG)4 40 °C, (FPGV)4 25 °C), ImageJ/Fiji): 2–4 µm; Tt, phase transition temperature [5]: 51.3 ± 0.1 °C; Concentration of metal ion in the supernatant ([6]; Cd^2+ (0.236 mM CdCl2), incubation 12 h at 4 ℃ then 60 ℃ 1.5 h, Tris-HCl (50.0 mM Tris, 599 mM NaCl, pH 8.0), at least three measurements): 19.0 ± 0.97 ppm; Removal efficiency ([6]; Cd^2+, incubation 12 h, versus control without peptide): 27.2% and 27.2 ± 0.04%
FPGVGFPGVGFPGVGFPGVGFPGVG-NH2 [(FPGVG)5, reference compound] | 2.691 min | 25.6 ± 1.2 °C | 20.5 ± 0.1 °C |  | Tt, phase transition temperature [1, 10]: 39.0 ± 0.2 °C; Tt, phase transition temperature [5]: 56.6 ± 1.3 °C; Hydrodynamic diameter (DLS) ([4]; at 10 ℃, Zetasizer cumulant fit): approximately 3 nm; Hydrodynamic diameter (DLS) ([4]; at temperatures above 20 ℃): 3–5 µm
VFPGVFPGVFPGVFPG-NH2 [(VFPG)4, H-(VFPG)n-NH2 (n = 4)] | 2.493 min |  | 45.3 ± 0.6 °C |  | 

Second part, led by results:

UPLC retention time (measure of hydrophobicity) [3] | Tt, phase transition temperature [1, 8] | Tt, phase transition temperature [1, 9] | Substance | Temperature-dependent particle size by DLS (in words) [4] | other results
0.760 min |  |  | FPGFPGV-NH2 [(FPG)(FPGV), H-(FPG)(FPGV)-NH2] | did not show micrometer-sized particles | Coacervation on heating (in words) [1, 7]: did not show coacervation
0.466 min |  |  | FPGVFPG-NH2 [(FPGV)(FPG)] | did not show micrometer-sized particles | Coacervation on heating (in words) [1, 7]: did not show coacervation
1.739 min | 71.6 ± 0.8 °C | 45.2 ± 0.9 °C | FPGVFPGVFPGV-NH2 [(FPGV)3] | formed sub-micron particles below Tt, which grew into micrometer-sized particles above Tt | 
